The subject of the assay is Influenza A virus. The experiment in a line: Antiviral activity against Influenza A virus assessed as inhibition of cap dependent viral transcription. It counts as functional, organism-based.

SMILES strings stand for the structures.

On to `O=C(O)/C(O)=C/C(=O)C1(Cc2ccc(Cl)cc2)CCCN(Cc2ccccc2)C1` (configuration not stated), for which the IC50 came to 1000 nM.

In the case of `O=C(O)/C(O)=C/C(=O)C1(Cc2ccc(Cl)cc2)CCN(Cc2ccccc2)CC1`, the 50% inhibitory concentration (IC50) was found to be 1000 nM.

Source of the values: ChEMBL document CHEMBL2163212, “Antivirals targeting influenza A virus” (J Med Chem, 2012).
